{"source": "ChEMBL document CHEMBL1137421", "about": "“3-Benzimidazol-2-yl-1H-indazoles as potent c-ABL inhibitors” (Bioorg Med Chem Lett, 2006)", "key": {"[1]": {"molecular_target": "Tyrosine-protein kinase ABL1 (Homo sapiens, UniProt P00519)", "sequence (P00519 whole entry)": "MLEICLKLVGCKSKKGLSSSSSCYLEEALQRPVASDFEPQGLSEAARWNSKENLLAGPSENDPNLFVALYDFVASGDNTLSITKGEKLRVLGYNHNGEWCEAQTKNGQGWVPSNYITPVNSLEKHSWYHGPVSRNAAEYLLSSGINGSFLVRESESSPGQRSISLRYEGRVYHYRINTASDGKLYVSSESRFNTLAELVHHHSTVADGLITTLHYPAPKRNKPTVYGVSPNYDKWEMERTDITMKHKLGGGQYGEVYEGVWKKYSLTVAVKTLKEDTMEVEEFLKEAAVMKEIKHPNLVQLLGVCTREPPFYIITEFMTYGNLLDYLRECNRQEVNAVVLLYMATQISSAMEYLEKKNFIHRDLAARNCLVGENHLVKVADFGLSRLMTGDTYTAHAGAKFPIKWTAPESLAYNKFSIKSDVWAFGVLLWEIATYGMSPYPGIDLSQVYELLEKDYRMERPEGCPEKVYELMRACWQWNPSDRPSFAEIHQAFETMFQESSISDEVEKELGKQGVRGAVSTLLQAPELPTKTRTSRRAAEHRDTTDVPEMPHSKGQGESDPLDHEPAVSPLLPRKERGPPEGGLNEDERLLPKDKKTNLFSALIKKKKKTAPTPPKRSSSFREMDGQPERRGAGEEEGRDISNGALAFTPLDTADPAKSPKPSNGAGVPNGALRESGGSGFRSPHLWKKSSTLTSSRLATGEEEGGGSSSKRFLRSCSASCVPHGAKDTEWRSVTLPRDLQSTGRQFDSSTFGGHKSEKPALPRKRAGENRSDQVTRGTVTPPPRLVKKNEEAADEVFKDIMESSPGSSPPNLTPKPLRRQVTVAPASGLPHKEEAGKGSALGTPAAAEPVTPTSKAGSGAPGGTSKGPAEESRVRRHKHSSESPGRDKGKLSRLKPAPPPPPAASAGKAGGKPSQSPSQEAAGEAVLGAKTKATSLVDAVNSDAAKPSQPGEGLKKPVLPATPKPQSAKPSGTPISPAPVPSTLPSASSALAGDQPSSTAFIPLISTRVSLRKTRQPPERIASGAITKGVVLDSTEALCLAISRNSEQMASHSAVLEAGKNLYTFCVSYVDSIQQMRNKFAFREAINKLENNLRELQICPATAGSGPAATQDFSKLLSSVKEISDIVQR"}, "Bcr/Abl fusion protein": {"molecular_target": "Bcr/Abl fusion protein (Homo sapiens, UniProt P00519)", "sequence (P00519 whole entry, the tested form may be a part)": "as the sequence (P00519 whole entry) above", "sequence (P11274 whole entry, further chain, the tested form may be a part)": "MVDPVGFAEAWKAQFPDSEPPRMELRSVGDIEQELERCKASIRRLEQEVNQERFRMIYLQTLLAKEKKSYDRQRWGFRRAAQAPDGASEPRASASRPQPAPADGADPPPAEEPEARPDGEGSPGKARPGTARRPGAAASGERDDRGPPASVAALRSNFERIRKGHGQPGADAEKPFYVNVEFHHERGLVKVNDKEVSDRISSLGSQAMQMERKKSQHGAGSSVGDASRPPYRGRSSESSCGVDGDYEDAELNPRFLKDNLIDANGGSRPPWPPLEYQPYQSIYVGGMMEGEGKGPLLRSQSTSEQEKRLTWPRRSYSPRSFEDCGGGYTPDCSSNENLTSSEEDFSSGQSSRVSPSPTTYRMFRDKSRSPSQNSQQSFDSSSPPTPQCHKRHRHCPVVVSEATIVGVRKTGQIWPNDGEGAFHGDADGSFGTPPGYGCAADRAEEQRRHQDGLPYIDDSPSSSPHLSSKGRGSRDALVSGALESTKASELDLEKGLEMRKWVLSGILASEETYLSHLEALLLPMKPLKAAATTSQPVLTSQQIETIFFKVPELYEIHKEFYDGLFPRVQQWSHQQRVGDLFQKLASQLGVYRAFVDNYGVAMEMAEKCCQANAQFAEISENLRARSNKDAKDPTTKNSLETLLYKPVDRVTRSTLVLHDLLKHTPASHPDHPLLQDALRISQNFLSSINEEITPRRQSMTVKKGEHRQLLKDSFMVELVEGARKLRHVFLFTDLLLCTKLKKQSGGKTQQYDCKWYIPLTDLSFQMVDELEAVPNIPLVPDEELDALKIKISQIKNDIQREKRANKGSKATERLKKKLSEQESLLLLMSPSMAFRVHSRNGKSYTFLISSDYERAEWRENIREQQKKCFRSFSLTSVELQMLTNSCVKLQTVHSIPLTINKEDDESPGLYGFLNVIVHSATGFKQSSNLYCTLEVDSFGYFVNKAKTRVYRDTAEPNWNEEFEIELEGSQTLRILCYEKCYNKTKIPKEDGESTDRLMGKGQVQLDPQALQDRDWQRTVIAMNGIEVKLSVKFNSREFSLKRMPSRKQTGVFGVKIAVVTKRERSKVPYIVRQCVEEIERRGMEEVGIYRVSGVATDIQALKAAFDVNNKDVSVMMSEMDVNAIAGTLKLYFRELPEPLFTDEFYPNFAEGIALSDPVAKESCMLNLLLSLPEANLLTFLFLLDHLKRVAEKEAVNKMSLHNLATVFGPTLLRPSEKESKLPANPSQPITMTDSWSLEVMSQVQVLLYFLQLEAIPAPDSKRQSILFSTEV", "assay_type": "functional, cell-based, K562"}}, "note": "pEC50, pIC50: −log10 of the molar value."}
{"smiles": "c1ccc(CNc2ccc3[nH]nc(-c4nc5ccc(N6CCC(N7CCCCC7)CC6)cc5[nH]4)c3c2)cc1", "values": [{"measurement": "pIC50", "setting": "[1]", "value": 6.89}, {"measurement": "pEC50", "setting": "Bcr/Abl fusion protein", "value": 5.74}]}
{"smiles": "COc1ccc(Oc2ccc3[nH]nc(-c4nc5cc(N6CCC(N7CCCCC7)CC6)ccc5[nH]4)c3c2)cc1", "values": [{"measurement": "pIC50", "setting": "[1]", "value": 6.66}]}
{"smiles": "CC(C)(C)NC(=O)Nc1ccc2[nH]nc(-c3nc4ccc(N5CCC(N6CCCCC6)CC5)cc4[nH]3)c2c1", "values": [{"measurement": "pIC50", "setting": "[1]", "value": 7.52}, {"measurement": "pEC50", "setting": "Bcr/Abl fusion protein", "value": 6.44}]}
{"smiles": "c1ccc(COc2ccc3[nH]nc(-c4nc5ccc(N6CCC(N7CCCCC7)CC6)cc5[nH]4)c3c2)cc1", "values": [{"measurement": "pIC50", "setting": "[1]", "value": 7.22}, {"measurement": "pEC50", "setting": "Bcr/Abl fusion protein", "value": 6.01}]}
{"smiles": "COc1ccc2[nH]nc(-c3nc4ccc(N5CCC(N6CCCCC6)CC5)cc4[nH]3)c2c1", "values": [{"measurement": "pIC50", "setting": "[1]", "value": 6.64}]}
{"smiles": "COc1cccc(Oc2ccc3[nH]nc(-c4nc5cc(N6CCC(N7CCCCC7)CC6)ccc5[nH]4)c3c2)c1", "values": [{"measurement": "pIC50", "setting": "[1]", "value": 7.22}]}
{"smiles": "O=C(Nc1ccc2[nH]nc(-c3nc4ccc(N5CCC(N6CCCCC6)CC5)cc4[nH]3)c2c1)c1ccco1", "values": [{"measurement": "pIC50", "setting": "[1]", "value": 6.82}, {"measurement": "pEC50", "setting": "Bcr/Abl fusion protein", "value": 6.25}]}
{"smiles": "c1ccc(COc2ccc3c(-c4nc5ccc(N6CCC(N7CCCCC7)CC6)cc5[nH]4)n[nH]c3c2)cc1", "values": [{"measurement": "pIC50", "setting": "[1]", "value": 6.70}]}
{"smiles": "COc1ccccc1Oc1ccc2[nH]nc(-c3nc4cc(N5CCC(N6CCCCC6)CC5)ccc4[nH]3)c2c1", "values": [{"measurement": "pIC50", "setting": "[1]", "value": 7.70}]}
{"smiles": "c1coc(CNc2ccc3[nH]nc(-c4nc5cc(N6CCC(N7CCCCC7)CC6)ccc5[nH]4)c3c2)c1", "values": [{"measurement": "pIC50", "setting": "[1]", "value": 7.22}, {"measurement": "pEC50", "setting": "Bcr/Abl fusion protein", "value": 7.52}]}
{"smiles": "c1csc(CNc2ccc3[nH]nc(-c4nc5cc(N6CCC(N7CCCCC7)CC6)ccc5[nH]4)c3c2)n1", "values": [{"measurement": "pIC50", "setting": "[1]", "value": 8.00}, {"measurement": "pEC50", "setting": "Bcr/Abl fusion protein", "value": 8.00}]}
{"smiles": "c1ccc(CN2CCC(Nc3ccc4[nH]nc(-c5nc6cc(N7CCC(N8CCCCC8)CC7)ccc6[nH]5)c4c3)CC2)cc1", "values": [{"measurement": "pIC50", "setting": "[1]", "value": 8.15}, {"measurement": "pEC50", "setting": "Bcr/Abl fusion protein", "value": 7.15}]}
{"smiles": "c1ccc2c(-c3nc4ccc(N5CCC(N6CCCCC6)CC5)cc4[nH]3)n[nH]c2c1", "values": [{"measurement": "pIC50", "setting": "[1]", "value": 6.22}]}
{"smiles": "c1ccc(Oc2ccc3[nH]nc(-c4nc5ccc(N6CCC(N7CCCCC7)CC6)cc5[nH]4)c3c2)cc1", "values": [{"measurement": "pIC50", "setting": "[1]", "value": 7.52}]}
{"smiles": "c1ccc(COc2cc3[nH]nc(-c4nc5cc(N6CCC(N7CCCCC7)CC6)ccc5[nH]4)c3cc2OCc2ccccc2)cc1", "values": [{"measurement": "pIC50", "setting": "[1]", "value": 6.05}]}
{"smiles": "COc1cc2[nH]nc(-c3nc4ccc(N5CCC(N6CCCCC6)CC5)cc4[nH]3)c2cc1OCc1ccccc1", "values": [{"measurement": "pIC50", "setting": "[1]", "value": 8.52}]}
